Laboratory results taken from ChEMBL document CHEMBL1201862, “PubChem BioAssay data set” (2004).
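Interpolation was linear, between the two tested concentrations surrounding the appropriate level; five concentrations were tested over 48 hours in 96-well plates. GI50 is the concentration that inhibits growth by half.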 Active and inactive are the calls of the source. Rule as the data show it: active = GI50 up to about 1.1 µM and inactive = higher.

Experiments:
Assay in all cases: growth of human tumour cells (NCI), 48 h
[1] = tested on: SW-620
[2] = tested on: DU-145
[3] = tested on: HOP-62
[4] = tested on: A498
[5] = tested on: SK-MEL-5
[6] = tested on: UO-31
[7] = tested on: MCF7
[8] = tested on: OVCAR-3
[9] = tested on: OVCAR-4
[10] = tested on: RPMI-8226
[11] = tested on: MDA-MB-231
[12] = tested on: HL-60
[13] = tested on: HCC 2998
[14] = tested on: SF-295
[15] = tested on: SR
[16] = tested on: EKVX
[17] = tested on: KM12
[18] = tested on: HCT-15
[19] = tested on: OVCAR-5
[20] = tested on: TK-10
[21] = tested on: CCRF-CEM
[22] = tested on: HCT-116
[23] = tested on: T47D
[24] = tested on: CAKI-1
[25] = tested on: ACHN
[26] = tested on: NCI-H226
[27] = tested on: SF-268
[28] = tested on: HOP-92
[29] = tested on: U-251
[30] = tested on: COLO 205
[31] = tested on: A549
[32] = tested on: SN12C
[33] = tested on: Malme-3M
[34] = tested on: SNB-19
[35] = tested on: NCI-H23
[36] = tested on: SNB-75
[37] = tested on: NCI-H460
[38] = tested on: SK-MEL-2
[39] = tested on: HT-29
[40] = tested on: UACC-62
[41] = tested on: NCI/ADR-RES
[42] = tested on: LOX IMVI
[43] = tested on: SF-539
[44] = tested on: BT-549
[45] = tested on: MOLT-4
[46] = tested on: PC-3
[47] = tested on: OVCAR-8
[48] = tested on: SK-OV-3
[49] = tested on: MDA-N
[50] = tested on: 786-0
[51] = tested on: Hs-578T
[52] = tested on: M14
[53] = tested on: MDA-MB-435
[54] = tested on: SK-MEL-28
[55] = tested on: IGROV-1
[56] = tested on: K562
[57] = tested on: UACC-257
[58] = tested on: RXF 393

## Cc1ccc(S(=O)(=O)N(CC(O)COc2ccccc2)c2c(F)c(F)c(F)c(F)c2F)cc1 (configuration not stated)
[1]
  GI50: 18.7 µM (inactive)
[2]
  GI50: 22.3 µM (inactive)
[3]
  GI50: 16.7 µM (inactive)
[4]
  GI50: 17.1 µM (inactive)
[5]
  GI50: 12.4 µM (inactive)
[6]
  GI50: 12.6 µM (inactive)
[7]
  GI50: 10.5 µM (inactive)
[8]
  GI50: 17.3 µM (inactive)
[9]
  GI50: 13.3 µM (inactive)
[10]
  GI50: 1.04 µM (active)
[11]
  GI50: 12.8 µM (inactive)
[12]
  GI50: 6.32 µM (inactive)
[13]
  GI50: 17.3 µM (inactive)
[14]
  GI50: 17.1 µM (inactive)
[15]
  GI50: 20.7 µM (inactive)
[16]
  GI50: 17.9 µM (inactive)
[17]
  GI50: 20.7 µM (inactive)
[18]
  GI50: 16.5 µM
[19]
  GI50: 18.3 µM (inactive)
[20]
  GI50: 24.7 µM (inactive)
[21]
  GI50: < 0.01 µM (active)
[22]
  GI50: 17 µM (inactive)
[23]
  GI50: 18 µM (inactive)
[24]
  GI50: 0.237 µM (active)
[25]
  GI50: 15.7 µM (inactive)
[26]
  GI50: 17.9 µM (inactive)
[27]
  GI50: 14.5 µM (inactive)
[28]
  GI50: 8.49 µM (inactive)
[29]
  GI50: 13.2 µM (inactive)
[30]
  GI50: 16.3 µM (inactive)
[31]
  GI50: 13.4 µM (inactive)
[32]
  GI50: 16.6 µM (inactive)
[33]
  GI50: 22.8 µM (inactive)
[34]
  GI50: 18.5 µM (inactive)
[35]
  GI50: 14.4 µM (inactive)
[36]
  GI50: 16.3 µM (inactive)
[37]
  GI50: 14.4 µM (inactive)
[38]
  GI50: 16.4 µM (inactive)
[39]
  GI50: 16.2 µM (inactive)
[40]
  GI50: 13.7 µM (inactive)
[41]
  GI50: 17 µM (inactive)
[42]
  GI50: 13.9 µM (inactive)
[43]
  GI50: 19.8 µM (inactive)
[44]
  GI50: 13.5 µM (inactive)
[45]
  GI50: 21.6 µM (inactive)
[46]
  GI50: 13.6 µM (inactive)
[47]
  GI50: 17.1 µM (inactive)
[48]
  GI50: 19.9 µM (inactive)
[49]
  GI50: 15.6 µM (inactive)
[50]
  GI50: 19.5 µM (inactive)
[51]
  GI50: 18.5 µM (inactive)
[52]
  GI50: 20 µM (inactive)
[53]
  GI50: 16.4 µM (inactive)
[54]
  GI50: 16.9 µM (inactive)

## Clc1ccc(-c2cn3c(nc4ccccc43)c(/C=C/c3cccs3)n2)cc1
[1]
  GI50: > 100 µM (inactive)
[2]
  GI50: > 100 µM (inactive)
[3]
  GI50: > 100 µM (inactive)
[4]
  GI50: > 100 µM (inactive)
[5]
  GI50: > 100 µM (inactive)
[6]
  GI50: > 100 µM (inactive)
[7]
  GI50: 7.08 µM (inactive)
[8]
  GI50: > 100 µM (inactive)
[9]
  GI50: 34.7 µM (inactive)
[10]
  GI50: 36.5 µM (inactive)
[11]
  GI50: 53.7 µM (inactive)
[12]
  GI50: > 100 µM (inactive)
[13]
  GI50: > 100 µM (inactive)
[55]
  GI50: 92 µM (inactive)
[15]
  GI50: 5.09 µM (inactive)
[17]
  GI50: 33.7 µM (inactive)
[18]
  GI50: > 100 µM
[19]
  GI50: > 100 µM (inactive)
[20]
  GI50: 86.1 µM (inactive)
[21]
  GI50: 45 µM (inactive)
[22]
  GI50: 97.9 µM (inactive)
[23]
  GI50: 27.3 µM (inactive)
[56]
  GI50: 49.1 µM (inactive)
[25]
  GI50: > 100 µM (inactive)
[26]
  GI50: > 100 µM (inactive)
[27]
  GI50: 72.8 µM (inactive)
[28]
  GI50: > 100 µM (inactive)
[29]
  GI50: 95.7 µM (inactive)
[30]
  GI50: > 100 µM (inactive)
[31]
  GI50: > 100 µM (inactive)
[32]
  GI50: > 100 µM (inactive)
[33]
  GI50: > 100 µM (inactive)
[34]
  GI50: > 100 µM (inactive)
[35]
  GI50: 52.5 µM (inactive)
[36]
  GI50: > 100 µM (inactive)
[37]
  GI50: 67.8 µM (inactive)
[38]
  GI50: 41.6 µM (inactive)
[39]
  GI50: > 100 µM (inactive)
[40]
  GI50: > 100 µM (inactive)
[41]
  GI50: > 100 µM (inactive)
[42]
  GI50: > 100 µM (inactive)
[57]
  GI50: 52.6 µM (inactive)
[43]
  GI50: > 100 µM (inactive)
[44]
  GI50: > 100 µM (inactive)
[46]
  GI50: 44.9 µM (inactive)
[48]
  GI50: > 100 µM (inactive)
[49]
  GI50: > 100 µM (inactive)
[50]
  GI50: > 100 µM (inactive)
[51]
  GI50: 43.8 µM (inactive)
[58]
  GI50: > 100 µM (inactive)
[52]
  GI50: > 100 µM (inactive)
[53]
  GI50: 37.3 µM (inactive)
[54]
  GI50: > 100 µM (inactive)
